Reference: PubChem BioAssay (NCI)
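Where inhibition never reached the appropriate level, the endpoint shown equals the highest concentration tested. Otherwise, values were interpolated linearly from a five-concentration, 48-hour dose response in 96-well plates. TGI marks complete inhibition of growth.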

Key:
Test in all cases: growth of human tumour cells (NCI), 48 h
786-0 renal = system: 786-0 renal
A498 renal = system: A498 renal
A549 NSCLC = system: A549 NSCLC
ACHN renal = system: ACHN renal
BT-549 breast = system: BT-549 breast
CAKI-1 renal = system: CAKI-1 renal
CCRF-CEM leukemia = system: CCRF-CEM leukemia
COLO 205 colon = system: COLO 205 colon
DU-145 prostate = system: DU-145 prostate
EKVX NSCLC = system: EKVX NSCLC
HCC-2998 colon = system: HCC-2998 colon
HCT-116 colon = system: HCT-116 colon
HCT-15 colon = system: HCT-15 colon
HL-60(TB) leukemia = system: HL-60(TB) leukemia
HOP-62 NSCLC = system: HOP-62 NSCLC
HOP-92 NSCLC = system: HOP-92 NSCLC
HS 578T breast = system: HS 578T breast
HT29 colon = system: HT29 colon
IGROV1 ovarian = system: IGROV1 ovarian
K-562 leukemia = system: K-562 leukemia
KM12 colon = system: KM12 colon
LOX IMVI melanoma = system: LOX IMVI melanoma
M14 melanoma = system: M14 melanoma
MALME-3M melanoma = system: MALME-3M melanoma
MCF7 breast = system: MCF7 breast
MDA-MB-231 breast = system: MDA-MB-231 breast
MDA-MB-435 = system: MDA-MB-435
MDA-N = system: MDA-N
MOLT-4 leukemia = system: MOLT-4 leukemia
NCI-H226 lung = system: NCI-H226 lung
NCI-H23 lung = system: NCI-H23 lung
NCI-H460 lung = system: NCI-H460 lung
NCI-H522 lung = system: NCI-H522 lung
NCI/ADR-RES ovarian = system: NCI/ADR-RES ovarian
OVCAR-3 ovarian = system: OVCAR-3 ovarian
OVCAR-4 ovarian = system: OVCAR-4 ovarian
OVCAR-5 ovarian = system: OVCAR-5 ovarian
OVCAR-8 ovarian = system: OVCAR-8 ovarian
PC-3 prostate = system: PC-3 prostate
RPMI-8226 leukemia = system: RPMI-8226 leukemia
RXF 393 renal = system: RXF 393 renal
SF-268 CNS = system: SF-268 CNS
SF-295 CNS = system: SF-295 CNS
SF-539 CNS = system: SF-539 CNS
SK-MEL-2 melanoma = system: SK-MEL-2 melanoma
SK-MEL-28 melanoma = system: SK-MEL-28 melanoma
SK-MEL-5 melanoma = system: SK-MEL-5 melanoma
SK-OV-3 ovarian = system: SK-OV-3 ovarian
SN12C renal = system: SN12C renal
SNB-19 CNS = system: SNB-19 CNS
SNB-75 CNS = system: SNB-75 CNS
SR leukemia = system: SR leukemia
SW-620 colon = system: SW-620 colon
T-47D breast = system: T-47D breast
TK-10 renal = system: TK-10 renal
U251 CNS = system: U251 CNS
UACC-257 melanoma = system: UACC-257 melanoma
UACC-62 melanoma = system: UACC-62 melanoma
UO-31 renal = system: UO-31 renal

SMILES: Nc1nc(N)c(-c2cccc(C(F)(F)F)c2)c(Cc2cccc(C(F)(F)F)c2)n1
- TGI (786-0 renal): 15.3 µM
- TGI (A498 renal): 15.9 µM
- TGI (A549 NSCLC): 13.3 µM
- TGI (ACHN renal): 13.5 µM
- TGI (BT-549 breast): 22.4 µM
- TGI (CAKI-1 renal): 21.9 µM
- TGI (CCRF-CEM leukemia): 44.3 µM
- TGI (COLO 205 colon): 19.6 µM
- TGI (DU-145 prostate): 21.5 µM
- TGI (EKVX NSCLC): 21.1 µM
- TGI (HCC-2998 colon): 11.3 µM
- TGI (HCT-116 colon): 12.2 µM
- TGI (HCT-15 colon): 16.5 µM
- TGI (HL-60(TB) leukemia): 17.7 µM
- TGI (HOP-62 NSCLC): 30.1 µM
- TGI (HOP-92 NSCLC): 25.8 µM
- TGI (HS 578T breast): 35 µM
- TGI (HT29 colon): 10.9 µM
- TGI (IGROV1 ovarian): 19.3 µM
- TGI (K-562 leukemia): 17.7 µM
- TGI (KM12 colon): 21.7 µM
- TGI (LOX IMVI melanoma): 17.9 µM
- TGI (M14 melanoma): 17.4 µM
- TGI (MALME-3M melanoma): 25.7 µM
- TGI (MCF7 breast): 18.5 µM
- TGI (MDA-MB-231 breast): 26.2 µM
- TGI (MDA-MB-435): 22.5 µM
- TGI (MDA-N): 17.9 µM
- TGI (MOLT-4 leukemia): 17.7 µM
- TGI (NCI-H226 lung): 30.1 µM
- TGI (NCI-H23 lung): 13 µM
- TGI (NCI-H460 lung): 13.5 µM
- TGI (NCI-H522 lung): 15.4 µM
- TGI (NCI/ADR-RES ovarian): 23.1 µM
- TGI (OVCAR-3 ovarian): 22.1 µM
- TGI (OVCAR-4 ovarian): 31 µM
- TGI (OVCAR-5 ovarian): 18.8 µM
- TGI (OVCAR-8 ovarian): 24.6 µM
- TGI (PC-3 prostate): 24.1 µM
- TGI (RPMI-8226 leukemia): 21.6 µM
- TGI (RXF 393 renal): 22.5 µM
- TGI (SF-268 CNS): 20 µM
- TGI (SF-295 CNS): 22.7 µM
- TGI (SF-539 CNS): 16.6 µM
- TGI (SK-MEL-2 melanoma): 20.7 µM
- TGI (SK-MEL-28 melanoma): 24.8 µM
- TGI (SK-MEL-5 melanoma): 17.6 µM
- TGI (SK-OV-3 ovarian): 28.1 µM
- TGI (SN12C renal): 15.3 µM
- TGI (SNB-19 CNS): 19.2 µM
- TGI (SNB-75 CNS): 29 µM
- TGI (SR leukemia): 17.5 µM
- TGI (SW-620 colon): 26.7 µM
- TGI (T-47D breast): 32.4 µM
- TGI (TK-10 renal): 20.9 µM
- TGI (U251 CNS): 29.6 µM
- TGI (UACC-257 melanoma): 20.2 µM
- TGI (UACC-62 melanoma): 14.8 µM
- TGI (UO-31 renal): 19.4 µM
